pIC50: −log10 of the molar value.
Legend:
rabbit lung ACE = target: T1, rabbit lung ACE (Oryctolagus cuniculus, UniProt P12822); assay: Inhibition of rabbit lung ACE by the method of Friedland and Silverstein; assay type: biochemical; conditions: read-out: IC50 (concentration inhibiting 50% of the activity of rabbit lung ACE)
T1 construct: activity of rabbit lung ACE; from tissue; host or cells: rabbit lung
T1 sequence (P12822 34-1310): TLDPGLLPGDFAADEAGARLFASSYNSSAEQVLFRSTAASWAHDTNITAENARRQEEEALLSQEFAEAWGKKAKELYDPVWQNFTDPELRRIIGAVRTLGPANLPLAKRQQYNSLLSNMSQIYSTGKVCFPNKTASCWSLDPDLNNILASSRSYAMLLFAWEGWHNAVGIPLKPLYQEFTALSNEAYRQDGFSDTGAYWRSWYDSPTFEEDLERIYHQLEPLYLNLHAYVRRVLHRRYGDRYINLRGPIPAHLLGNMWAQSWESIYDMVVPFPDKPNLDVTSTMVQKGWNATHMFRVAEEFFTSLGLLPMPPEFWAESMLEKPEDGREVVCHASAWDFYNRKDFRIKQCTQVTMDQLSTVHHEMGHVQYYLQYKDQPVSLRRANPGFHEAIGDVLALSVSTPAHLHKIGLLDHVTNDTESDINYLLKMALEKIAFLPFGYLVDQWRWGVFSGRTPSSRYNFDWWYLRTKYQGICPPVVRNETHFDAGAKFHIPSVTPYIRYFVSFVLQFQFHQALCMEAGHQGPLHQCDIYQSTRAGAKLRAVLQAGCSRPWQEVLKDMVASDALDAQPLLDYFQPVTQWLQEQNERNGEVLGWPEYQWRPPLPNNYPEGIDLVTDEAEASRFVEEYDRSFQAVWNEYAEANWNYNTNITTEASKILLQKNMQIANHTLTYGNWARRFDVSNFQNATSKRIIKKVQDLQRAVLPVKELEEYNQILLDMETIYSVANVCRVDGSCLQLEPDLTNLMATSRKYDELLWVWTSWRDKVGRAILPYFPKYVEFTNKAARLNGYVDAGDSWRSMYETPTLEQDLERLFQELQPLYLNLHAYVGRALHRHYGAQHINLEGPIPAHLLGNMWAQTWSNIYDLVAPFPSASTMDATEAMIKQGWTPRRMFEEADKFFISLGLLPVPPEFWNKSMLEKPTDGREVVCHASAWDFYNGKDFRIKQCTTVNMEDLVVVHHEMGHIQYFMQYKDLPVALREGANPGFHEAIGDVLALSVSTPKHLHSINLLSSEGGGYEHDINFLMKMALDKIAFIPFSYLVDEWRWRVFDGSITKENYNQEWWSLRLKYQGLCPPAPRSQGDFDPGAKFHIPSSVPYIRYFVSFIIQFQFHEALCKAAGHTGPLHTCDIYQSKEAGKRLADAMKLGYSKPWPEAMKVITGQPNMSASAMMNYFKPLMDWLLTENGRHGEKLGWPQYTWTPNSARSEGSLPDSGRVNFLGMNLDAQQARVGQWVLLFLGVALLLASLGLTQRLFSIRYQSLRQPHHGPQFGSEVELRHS
Description: The evaluation of converting enzyme inhibitors is introduced from the analysis of enzyme inhibition in a test tube. One example of inhibition activity of the compounds of the present invention calculated from the method of Friedland & Silverstein [Am. J. Clin. Pathol.
*Concentration inhibiting 50% of the activity of rabbit lung ACE was
determined by the method of Friedland and Silverstein.

[1] = tested on: pressor response to Angiotensin I (AI); assay: Inhibition of the pressor response to angiotensin I after i.v. administration, area under the AI inhibition response vs. time curve; assay type: in vivo; design: unit not given beside the values; conditions: test compound 50 μg/Kg i.v.; AI 300 ng/Kg into femoral vein; 0 to 360 min
Description: **Angiotensin I (AI, 300 ng/Kg) were injected into the femoral vein at
intervals of 10 min until the constant pressor response to AI was
180, 300 and 360 min after i.v. administration of the test compound (50
μg/Kg), and AVC (area under the curve) was calculated by the AI
inhibition response vs. time curves for 0 to 360 min.

| SMILES | pIC50 (rabbit lung ACE) | (iv) AUC (area under the AI inhibition response vs. time curve) [1] |
| --- | --- | --- |
| C[C@H](N[C@@H](CCCCCC1CCNCC1)C(=O)O)C(=O)N1CCC[C@H]1C(=O)O [Compound 3, N-[1(S)-carboxy-6-(4-piperidyl)hexyl]-L-alanyl-L-proline] | 8.96 | 424 |
| NCCCC[C@H](N[C@@H](CCCCC1CCNCC1)C(=O)O)C(=O)N1CCC[C@H]1C(=O)O [Compound 5, N^α -[1(S)-carboxy-5-(4-piperidyl)pentyl]-L-lysyl-L-proline] | 9.00 | 460 |
| NCCCC[C@H](N[C@@H](CCCCCC1CCNCC1)C(=O)O)C(=O)N1CCC[C@H]1C(=O)O [Compound 9, N^α -[1(S)-carboxy-6-(4-piperidyl)hexyl]-L-lysyl-L-proline] | 9.00 | – |
| CC(NC(CCCCCCN)C(=O)O)C(=O)N1CCCC1C(=O)O (stereo not drawn) [Compound 12, reference compound] | 8.85 | 368 |

Further molecules by rising pIC50 (rabbit lung ACE), results first:

| pIC50 (rabbit lung ACE) | SMILES | (iv) AUC (area under the AI inhibition response vs. time curve) [1] |
| --- | --- | --- |
| 9.00 | C[C@H](N[C@@H](CCCCC1CCNCC1)C(=O)O)C(=O)N1CCC[C@H]1C(=O)O [Compound 2, N-[1(S)-carboxy-5-(4-piperidyl)pentyl]-L-alanyl-L-proline] | 429 |
| 9.05 | C[C@H](N[C@@H](CCCCCC1CCNCC1)C(=O)O)C(=O)N1[C@H](C(=O)O)C[C@@H]2CCCC[C@@H]21 [Compound 10, 1-[N-[1(S)-carboxy-6-(4-piperidyl)hexyl]-L-alanyl]-(2α,3aβ,7aβ)-octahydro-1H-indole-2(S)-carboxylic acid] | – |
| 9.12 | C[C@H](N[C@@H](CCCCCCCN)C(=O)O)C(=O)N1CCC[C@H]1C(=O)O [Compound 1, N-[1(S)-carboxy-8-aminooctyl]-L-alanyl-L-proline] | 509 |
| 9.15 | NCCCCCCC[C@H](N[C@@H](CCCCN)C(=O)N1CCC[C@H]1C(=O)O)C(=O)O [Compound 4, N^α -[1(S)-carboxy-8-aminooctyl]-L-lysyl-L-proline] | 431 |
| 9.21 | C[C@H](N[C@@H](CCCCC1CCNCC1)C(=O)O)C(=O)N1[C@H](C(=O)O)C[C@@H]2CCCC[C@@H]21 [Compound 11, 1-[N-[1(S)-carboxy-5-(4-piperidyl)pentyl]-L-alanyl]-(2α,3aβ,7aβ)-octahydro-1H-indole-2(S)-carboxylic acid] | – |
